# Measurements taken from US9615577B2, “Herbicidally active cyclic dione compounds, or derivatives therefor, substituted by a phenyl which has an alkynyl-containing substituent” (Syngenta Limited, priority 2012, dated 2017).
# Experiments:
# Assay type in all cases: in vivo
# [1] = test system: Setaria faberi (SETFA); test: Biological Example 3 glasshouse assay for herbicidal activity, using various adjuvant systems, post-emergence; conditions: 8 g/ha, 0.5% v/v Adigor + 1.0% v/v AMS + 12.5% v/v IPA
# Protocol: (§1) Post-emergence foliar spray application, 200 L/ha, usually one or two replicates for the weeds (depending on application rate), and two replicates for soybean.
# (§2) Standard warm conditions (tropical), in glasshouse. Specifically, the glasshouse bay conditions are 24° C./18° C. day/night; 16/8 hours light/dark; 65% humidity.
# (§3) The herbicidal application takes place at the following growth stages for plants which include inter alia one or more of the following plants (usually the herbicidal application takes place on at least the following six plants: DIGSA, ELEIN, SETFA, GLXMA Nikko, and GLXMA TMG133, and either BRADC or BRAPP):
# Setaria faberi (SETFA)—growth stage 12 or 13
# (§4) Each test Compound is applied with one of the following adjuvant systems (all percentages are final concentrations in the aqueous spray mixture):
# (§5) Adjuvant system 1: 0.5% v/v Adigor™ *, 1.0% v/v AMS (ammonium sulphate) and 12.5% v/v IPA (isopropyl alcohol).
# (§6) Adjuvant system 2: 0.5% v/v Adigor™ * and 12.5% v/v IPA (isopropyl alcohol).
# (§7) Adjuvant system 3: 0.5% v/v Hexamoll™ DINCH **, 1.0% v/v AMS (ammonium sulphate) and 12.5% v/v IPA (isopropyl alcohol).
# (§8) Seeds of the weed plants, typically including inter alia [either Brachiaria decumbens (BRADC) or Brachiaria platyphylla (BRAPP)], Digitaria sanguinalis (DIGSA), Eleusine indica (ELEIN), Setaria faberi (SETFA) are sown in seed trays (troughs) containing clay loam soil (pH 7.0, 2.2% organic matter, “Trough Mix A”); and soybean seed is sown in pots containing the same soil with 3 soybean seedlings per pot. The plants are sprayed with the test herbicide when they reach the growth stages mentioned above.
# (§9) The test herbicidal solutions are prepared by mixing the appropriate aliquots of the test substance(s) and the adjuvant system indicated above *** in deionised water to give the desired treatment concentration. […]
# (§10) A visual assessment of the % herbicidal damage is made 7 and 14 Days After herbicide Application (DAA) (or, in a minority of cases, 7 and 15 DAA), and the results are recorded as % visual herbicidal damage where 0%=no damage to plants and 100%=plant totally killed. […]
# [2] = test system: Brachiaria decumbens (BRADC); test: as above; conditions: 8 g/ha, 14 DAA, adjuvant system per compound
# Protocol: as §1, §2, §3
# Brachiaria decumbens (BRADC)— growth stage (GS) 12 or 13 (or GS 12)—or, if BRADC is not used, then Brachiaria platyphylla (BRAPP)—growth stage 12 or 13
# as §4, §5
# Adjuvant system 2: 0.5% v/v Adigor™ * and 12.5% v/v IPA (isopropyl alcohol). […]
# as §10
# [3] = test system: Digitaria sanguinalis (DIGSA); test: as above; conditions: 8 g/ha, 0.5% v/v Adigor + 1.0% v/v AMS + 12.5% v/v IPA
# Protocol: as §1, §2, §3
# Digitaria sanguinalis (DIGSA)—growth stage 12 or 13
# as §4, §5, §6, §7
# Seeds of the weed plants, typically including inter alia [either Brachiaria decumbens (BRADC) or Brachiaria platyphylla (BRAPP)], Digitaria sanguinalis (DIGSA), Eleusine indica (ELEIN), Setaria faberi (SETFA) are sown in seed trays (troughs) containing clay loam soil (pH 7.0, 2.2% organic matter, “Trough Mix A”); and soybean seed is sown in pots containing the same soil with 3 soybean seedlings per pot. The plants are sprayed with the test herbicide when they reach the growth stages mentioned above. […]
# as §10
# [4] = test system: Echinochloa crus-galli (ECHCG); test: as above; conditions: 8 g/ha, 14 DAA, adjuvant system per compound
# Protocol: as §1, §2, §3
# Echinochloa crus-galli (ECHCG)—growth stage 12 or 13
# as §4, §5, §6
# Adjuvant system 3: 0.5% v/v Hexamoll™ DINCH **, 1.0% v/v AMS (ammonium sulphate) and 12.5% v/v IPA (isopropyl alcohol). […]
# as §10
# [5] = test system: Amaranthus retroflexus (AMARE); test: Test 1A glasshouse assay for herbicidal activity, post-emergence; conditions: 312 h, 250 g/ha, evaluated after 13 days, read-out: percentage phytotoxicity AMARE
# Summary of the method: (§11)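 Pre-em: spray 1 d after sowing; post-em: spray after 8 d cultivation. Formulation in acetone/water (50:50), 0.5% Tween 20. Glasshouse 24/16 °C d/n, 14 h light, 65% humidity. Readout: visual % damage at 13 d.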
# [6] = test system: Abutilon theophasti Medik. (ABUTH); test: as above; conditions: 312 h, 250 g/ha, evaluated after 13 days, read-out: percentage phytotoxicity ABUTH
# Summary of the method: as §11
# [7] = test system: Echinochloa crus-galli (ECHCG); test: as above; conditions: 312 h, 250 g/ha, evaluated after 13 days, read-out: percentage phytotoxicity ECHCG
# Summary of the method: as §11
# [8] = test system: Setaria faberi (SETFA); test: as above; conditions: 312 h, 250 g/ha, evaluated after 13 days, read-out: percentage phytotoxicity SETFA
# Summary of the method: as §11
# [9] = test system: Alopecurus myosuroides (ALOMY); test: as above; conditions: 312 h, 250 g/ha, evaluated after 13 days, read-out: percentage phytotoxicity ALOMY
# Summary of the method: as §11
# [10] = test system: Amaranthus retroflexus (AMARE); test: Test 1A glasshouse assay for herbicidal activity, pre-emergence; conditions: 312 h, 250 g/ha, evaluated after 13 days, read-out: percentage phytotoxicity AMARE
# Summary of the method: as §11
# [11] = test system: Abutilon theophasti Medik. (ABUTH); test: as above; conditions: 312 h, 250 g/ha, evaluated after 13 days, read-out: percentage phytotoxicity ABUTH
# Summary of the method: as §11
# [12] = test system: Echinochloa crus-galli (ECHCG); test: as above; conditions: 312 h, 250 g/ha, evaluated after 13 days, read-out: percentage phytotoxicity ECHCG
# Summary of the method: as §11
# [13] = test system: Setaria faberi (SETFA); test: as above; conditions: 312 h, 250 g/ha, evaluated after 13 days, read-out: percentage phytotoxicity SETFA
# Summary of the method: as §11
# [14] = test system: Alopecurus myosuroides (ALOMY); test: as above; conditions: 312 h, 250 g/ha, evaluated after 13 days, read-out: percentage phytotoxicity ALOMY
# Summary of the method: as §11
# [15] = test system: Echinochloa crus-galli (ECHCG); test: Biological Example 2 comparative herbicidal data, post-emergence glasshouse screen; conditions: 312 h, read-out: Post-emergence herbicidal activities (percentage phytotoxicity) ECHCG
# Summary of the method: (§12)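 Plants grown 8 days in a glasshouse (24/16°C day/night, 14 h light, 65% humidity) were sprayed with compound in acetone/water (50:50) containing 0.5% Tween 20. They were kept under the same conditions and watered twice daily. Phytotoxicity was scored visually after 13 days (0 = no damage, 100 = total damage).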
# [16] = test system: Setaria faberi (SETFA); test: as above; conditions: 312 h, read-out: Post-emergence herbicidal activities (percentage phytotoxicity) SETFA
# Summary of the method: as §12
# [17] = test system: Alopecurus myosuroides (ALOMY); test: as above; conditions: 312 h, read-out: Post-emergence herbicidal activities (percentage phytotoxicity) ALOMY
# Summary of the method: as §12
# [18] = test system: Abutilon theophasti Medik. (ABUTH); test: as above; conditions: read-out: Post-emergence herbicidal activities (percentage phytotoxicity) ABUTH
# [19] = test system: Eleusine indica (ELEIN); test: Biological Example 3 glasshouse assay for herbicidal activity, using various adjuvant systems, post-emergence; conditions: 8 g/ha, 15 DAA, 0.5% v/v Adigor + 1.0% v/v AMS + 12.5% v/v IPA
# Protocol: as §1, §2, §3
# Eleusine indica (ELEIN)—growth stage 12 or 13
# as §4, §5, §6, §7, §8, §9, §10
# [20] = test system: Amarantus retroflexus (AMARE); test: Biological Example 2 comparative herbicidal data, post-emergence glasshouse screen; conditions: Amaranthus retroflexus, read-out: Post-emergence herbicidal activities (percentage phytotoxicity) AMARE
structure (smiles),measurement,setting,value
"COc1cc(C#CCl)cc(Cl)c1C1C(=O)C2CCC(C2)C1=O (stereo not drawn) [Compound A-25, 3-[2-Chloro-4-(2-chloroethynyl)-6-methoxy-phenyl]bicyclo[3.2.1]octane-2,4-dione]",percentage control of Setaria faberi (SETFA),[1]; 14 DAA,40%
same,percentage control of Brachiaria decumbens (BRADC),[2],15%
same,percentage control of Digitaria sanguinalis (DIGSA),[3]; 14 DAA,60%
same,percentage control of Echinochloa crus-galli (ECHCG),[4],45%
"C#Cc1cc(Cl)c(C2C(=O)CC3(CCOCC3)CC2=O)c(OC)c1 [Compound B-1, 9-(2-Chloro-4-ethynyl-6-methoxy-phenyl)-3-oxaspiro[5.5]undecane-8,10-dione]",pest or weed control at 250 g/ha,[5],0%
same,pest or weed control at 250 g/ha,[6],60%
same,pest or weed control at 250 g/ha,[7],100%
same,pest or weed control at 250 g/ha,[8],100%
same,pest or weed control at 250 g/ha,[9],100%
same,pest or weed control at 250 g/ha,[10],20%
same,pest or weed control at 250 g/ha,[11],0%
same,pest or weed control at 250 g/ha,[12],100%
same,pest or weed control at 250 g/ha,[13],80%
same,pest or weed control at 250 g/ha,[14],90%
same,pest or weed control at 8 g/ha,[15]; 8 g/ha application rate,20%
same,pest or weed control at 30 g/ha,[15]; 30 g/ha application rate,80%
same,pest or weed control at 8 g/ha,[16]; 8 g/ha application rate,30%
same,pest or weed control at 30 g/ha,[16]; 30 g/ha application rate,70%
same,pest or weed control at 8 g/ha,[17]; 8 g/ha application rate,10%
same,pest or weed control at 30 g/ha,[17]; 30 g/ha application rate,70%
same,percentage control of Setaria faberi (SETFA),[1]; 15 DAA,50%
same,pest or weed control at 8 g/ha,[18]; 8 g/ha application rate,0%
same,pest or weed control at 30 g/ha,[18]; 30 g/ha application rate,10%
same,percentage control of Eleusine indica (ELEIN),[19],20%
same,pest or weed control at 8 g/ha,[20]; 8 g/ha application rate,0%
same,pest or weed control at 30 g/ha,[20]; 30 g/ha application rate,0%
same,percentage control of Digitaria sanguinalis (DIGSA),[3]; 15 DAA,85%
